Laboratory results published in patent publication US20240383898A1, “PYRIDO RING COMPOUND, PREPARATION METHOD THEREFOR, INTERMEDIATE, COMPOSITION, AND APPLICATION” (YIYOU BIOTECH (SHANGHAI) CO., LTD, priority 2021, published 2024).

Legend:
JAK1 = target: T1, JAK1 (Homo sapiens, UniProt P23458); test: In vitro activity test of JAK1 kinase (Caliper EZ Reader conversion assay); format: biochemical; details: enzyme activity, 10 concentrations from 1000 nM, 3-fold dilution
T1 construct: purchased Carna 08-114
Summary of the method: (§1)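 JAK1 or JAK2 pre-incubated with compound (top 1000 nM, 3-fold, 10 points, duplicate) for 10 min at room temperature, then ATP plus substrate added. Substrate conversion read by mobility-shift on Caliper EZ Reader after stop solution. Inhibition normalized to no-enzyme and DMSO controls; IC50 from variable-slope four-parameter fit.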

JAK2 = target: T2, JAK2 (Homo sapiens, UniProt O60674); test: In vitro activity test of JAK2 kinase (Caliper EZ Reader conversion assay); format: biochemical; details: enzyme activity, 10 concentrations from 1000 nM, 3-fold dilution
T2 construct: purchased Carna 08-045
Summary of the method: as §1

T1 sequence (P23458 whole entry, species assumed): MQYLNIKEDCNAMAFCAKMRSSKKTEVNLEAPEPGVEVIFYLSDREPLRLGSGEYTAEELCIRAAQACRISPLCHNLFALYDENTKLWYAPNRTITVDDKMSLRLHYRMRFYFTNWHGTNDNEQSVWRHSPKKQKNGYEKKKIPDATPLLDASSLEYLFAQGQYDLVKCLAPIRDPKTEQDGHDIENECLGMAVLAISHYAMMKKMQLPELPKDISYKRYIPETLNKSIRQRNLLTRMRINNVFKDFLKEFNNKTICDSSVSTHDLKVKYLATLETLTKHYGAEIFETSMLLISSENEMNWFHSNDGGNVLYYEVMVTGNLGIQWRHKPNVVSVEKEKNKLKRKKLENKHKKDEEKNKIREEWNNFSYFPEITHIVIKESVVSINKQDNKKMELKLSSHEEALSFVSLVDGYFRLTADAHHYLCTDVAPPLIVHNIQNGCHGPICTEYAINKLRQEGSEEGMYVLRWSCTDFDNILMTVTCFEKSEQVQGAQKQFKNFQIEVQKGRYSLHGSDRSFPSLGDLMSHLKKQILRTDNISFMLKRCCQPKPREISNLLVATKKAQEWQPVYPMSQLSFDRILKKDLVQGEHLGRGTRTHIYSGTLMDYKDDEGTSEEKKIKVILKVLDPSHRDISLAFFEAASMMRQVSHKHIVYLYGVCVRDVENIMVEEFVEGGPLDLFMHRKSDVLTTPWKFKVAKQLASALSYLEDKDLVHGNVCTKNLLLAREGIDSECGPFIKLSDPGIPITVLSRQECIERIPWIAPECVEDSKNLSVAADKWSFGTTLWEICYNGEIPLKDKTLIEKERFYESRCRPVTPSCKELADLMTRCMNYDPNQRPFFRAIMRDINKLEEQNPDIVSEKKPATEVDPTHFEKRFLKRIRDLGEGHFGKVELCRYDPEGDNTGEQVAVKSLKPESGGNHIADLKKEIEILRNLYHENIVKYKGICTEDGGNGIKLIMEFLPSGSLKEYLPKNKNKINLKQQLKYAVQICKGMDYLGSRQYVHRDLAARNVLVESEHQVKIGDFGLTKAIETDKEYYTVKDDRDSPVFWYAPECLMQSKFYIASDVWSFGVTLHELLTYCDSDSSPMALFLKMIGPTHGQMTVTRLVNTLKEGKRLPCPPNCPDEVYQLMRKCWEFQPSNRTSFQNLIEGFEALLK
T2 sequence (O60674 whole entry, species assumed): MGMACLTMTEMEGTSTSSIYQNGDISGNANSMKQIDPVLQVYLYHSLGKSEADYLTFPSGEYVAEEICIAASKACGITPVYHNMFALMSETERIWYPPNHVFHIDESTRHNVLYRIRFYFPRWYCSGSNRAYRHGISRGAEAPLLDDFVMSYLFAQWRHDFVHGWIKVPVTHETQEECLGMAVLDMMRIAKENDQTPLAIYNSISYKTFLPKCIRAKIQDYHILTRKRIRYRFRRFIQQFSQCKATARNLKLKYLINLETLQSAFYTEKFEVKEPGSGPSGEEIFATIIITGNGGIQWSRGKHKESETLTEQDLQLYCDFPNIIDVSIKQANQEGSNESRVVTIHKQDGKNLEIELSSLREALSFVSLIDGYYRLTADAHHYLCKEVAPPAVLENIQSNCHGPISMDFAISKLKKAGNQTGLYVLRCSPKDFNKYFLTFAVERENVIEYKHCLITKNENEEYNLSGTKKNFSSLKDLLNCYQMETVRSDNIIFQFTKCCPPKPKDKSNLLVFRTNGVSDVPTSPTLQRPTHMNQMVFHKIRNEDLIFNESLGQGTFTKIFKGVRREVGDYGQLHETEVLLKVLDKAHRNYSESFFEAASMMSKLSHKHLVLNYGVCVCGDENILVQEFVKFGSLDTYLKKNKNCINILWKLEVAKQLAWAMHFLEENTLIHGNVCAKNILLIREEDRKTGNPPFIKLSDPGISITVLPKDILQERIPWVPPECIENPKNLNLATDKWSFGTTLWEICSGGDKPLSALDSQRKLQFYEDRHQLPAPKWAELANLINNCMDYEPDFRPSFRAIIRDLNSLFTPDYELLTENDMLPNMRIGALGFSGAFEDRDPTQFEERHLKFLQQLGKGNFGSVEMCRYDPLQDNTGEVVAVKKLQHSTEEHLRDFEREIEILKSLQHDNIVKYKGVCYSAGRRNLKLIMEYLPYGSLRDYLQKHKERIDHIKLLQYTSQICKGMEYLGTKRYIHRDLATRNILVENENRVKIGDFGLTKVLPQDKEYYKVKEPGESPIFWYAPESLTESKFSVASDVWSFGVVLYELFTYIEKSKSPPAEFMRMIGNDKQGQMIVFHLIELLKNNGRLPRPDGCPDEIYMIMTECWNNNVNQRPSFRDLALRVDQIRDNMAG

`CS(=O)(=O)c1ccc(C2Nc3cnc4[nH]ccc4c3N2C2CCN(CCC#N)C2)cc1` (stereo not drawn) [LXS60, 3-(3-(2-(4-(Methylsulfonyl)phenyl)-2,3-dihydroimidazo[4,5-d]pyrrolo[2,3-b]pyridin-1(6H)-yl)pyrrolidin-1-yl)propanenitrile] showed an IC50 (JAK1) of 10 to 100 nM and an IC50 (JAK2) of 10 to 100 nM.

Work on `C[C@@H](O)c1nc2cnc3[nH]ccc3c2n1C1CCN(C(=O)C2(C#N)CC2)C1` (stereo partly drawn) [LXS61, 1-(3-(2-((R)-1-Hydroxyethyl)imidazo[4,5-d]pyrrolo[2,3-b]pyridin-1(6H)-yl)pyrrolidin-1-carbonyl)cyclopropanecarbonitrile] yielded an IC50 (JAK1) of 100 to 1000 nM and an IC50 (JAK2) of 100 to 1000 nM.

`CCS(=O)(=O)N1CC(CC#N)(n2cc(-n3c(-c4ccc(C)s4)nc4cnc5[nH]ccc5c43)cn2)C1` [LXS62, 2-(1-(Ethylsulfonyl)-3-(4-(2-(5-methylthien-2-yl)imidazo[4,5-d]pyrrolo[2,3-b]pyridin-1(6H)-yl)-1H-pyrazol-1-yl)azetidin-3-yl)acetonitrile] showed an IC50 (JAK1) of 100 to 1000 nM and an IC50 (JAK2) of less than 10 nM.

Compound `CCS(=O)(=O)N1CC(CC#N)(n2cc(-n3c(-c4cccs4)nc4cnc5[nH]ccc5c43)cn2)C1` [LXS63, 2-(1-(Ethylsulfonyl)-3-(4-(2-(thiophen-2-yl)imidazo[4,5-d]pyrrolo[2,3-b]pyridin-1(6H)-yl)-1H-pyrazol-1-yl)azetidin-3-yl)acetonitrile] has an IC50 (JAK1) of 100 to 1000 nM and an IC50 (JAK2) of less than 10 nM.

`N#CCCn1cc(-n2c(C(F)(F)F)nc3cnc4[nH]ccc4c32)cn1` [LXS64, 3-(4-(2-(Trifluoromethyl)imidazo[4,5-d]pyrrolo[2,3-b]pyridin-1(6H)-yl)-1H-pyrazol-1-yl)propanenitrile] was tested, and the IC50 (JAK1) was 100 to 1000 nM and the IC50 (JAK2) was less than 10 nM.

With `C[C@@H](O)c1nc2cnc3[nH]ccc3c2n1[C@H]1CCN(CCCC#N)C1` [LXS65, 4-((S)-3-(2-((R)-1-Hydroxyethyl)imidazo[4,5-d]pyrrolo[2,3-b]pyridin-1(6H)-yl)pyrrolidin-1-yl)butanenitrile] the IC50 (JAK1) was less than 10 nM and the IC50 (JAK2) was 100 to 1000 nM.

With `N#CCC(C1CCCC1)n1cc(-n2c(C(F)(F)F)nc3cnc4[nH]ccc4c32)cn1` (stereo not drawn) [LXS66, 3-Cyclopentyl-3-(4-(2-(trifluoromethyl)imidazo[4,5-d]pyrrolo[2,3-b]pyridin-1(6H)-yl)-1H-pyrazol-1-yl)propanenitrile] the IC50 (JAK1) was 10 to 100 nM and the IC50 (JAK2) was 10 to 100 nM.

`CS(=O)(=O)c1ccc(C2Nc3cnc4[nH]ccc4c3N2c2cnn(CCC#N)c2)cc1` (stereo not drawn) [LXS67, 3-(4-(2-(4-(Methylsulfonyl)phenyl)-2,3-dihydroimidazo[4,5-d]pyrrolo[2,3-b]pyridin-1(6H)-yl)-1H-pyrazol-1-yl)propanenitrile] gave an IC50 (JAK1) of 10 to 100 nM and an IC50 (JAK2) of 10 to 100 nM.

Compound `C[C@@H](O)c1nc2cnc3[nH]ccc3c2n1[C@H]1CCN(CCCCC#N)C1` [LXS68, 5-((S)-3-(2-((R)-1-Hydroxyethyl)imidazo[4,5-d]pyrrolo[2,3-b]pyridin-1(6H)-yl)pyrrolidin-1-yl)pentanonitrile] has an IC50 (JAK1) of less than 10 nM and an IC50 (JAK2) of 100 to 1000 nM.

`C[C@@H](O)c1nc2cnc3[nH]ccc3c2n1[C@@H]1CN(CCCC#N)CC12CC2` [LXS69, 4-((S)-7-(2-((R)-1-Hydroxyethyl)imidazo[4,5-d]pyrrolo[2,3-b]pyridin-1(6H)-yl)-5-azaspiro[2,4]hept-5-yl)butanenitrile] showed an IC50 (JAK1) of 10 to 100 nM and an IC50 (JAK2) of 10 to 100 nM.

`C[C@@H](O)c1nc2cnc3[nH]ccc3c2n1[C@@H]1CN(CCCC(F)(F)F)CC12CC2` [LXS70, (R)-1-(1-((S)-5-(4,4,4-Trifluorobutyl)-5-azaspiro[2,4]hept-7-yl)-1,6-dihydroimidazo[4,5-d]pyrrolo[2,3-b]pyridin-2-yl)ethanol] showed an IC50 (JAK1) of 10 to 100 nM and an IC50 (JAK2) of 10 to 100 nM.

Work on `C[C@@H](O)c1nc2cnc3[nH]ccc3c2n1[C@H]1CCN(CCCC(F)(F)F)C1` [LXS71, (R)-1-(1-((S)-1-(4,4,4-Trifluorobutyl)pyrrolidin-3-yl)-1,6-dihydroimidazo[4,5-d]pyrrolo[2,3-b]pyridin-2-yl)ethanol] yielded an IC50 (JAK1) of less than 10 nM and an IC50 (JAK2) of 100 to 1000 nM.
